Calls of active or inactive are those of the source. The calls are words filed in the database; no cut-off is given here.
What was measured:
[1] = target: Acetylcholinesterase (Electrophorus electricus) (UniProt O42275); experiment: Inhibition of electric eel AChE at 0.03 uM using acetylthiocholine iodide as substrate measured from 0.5 to 1.5 mins by spectrophotometry-based Ellman's method relative to control
[2] = target: Cholinesterase (Equus caballus) (UniProt P81908); experiment: Inhibition of equine BChE at 0.3 uM using butyrylthiocholine iodide as substrate measured from 0.5 to 1.5 mins by spectrophotometry based Ellman's method relative to control
Sequence of Cholinesterase (Equus caballus) (P81908 whole entry): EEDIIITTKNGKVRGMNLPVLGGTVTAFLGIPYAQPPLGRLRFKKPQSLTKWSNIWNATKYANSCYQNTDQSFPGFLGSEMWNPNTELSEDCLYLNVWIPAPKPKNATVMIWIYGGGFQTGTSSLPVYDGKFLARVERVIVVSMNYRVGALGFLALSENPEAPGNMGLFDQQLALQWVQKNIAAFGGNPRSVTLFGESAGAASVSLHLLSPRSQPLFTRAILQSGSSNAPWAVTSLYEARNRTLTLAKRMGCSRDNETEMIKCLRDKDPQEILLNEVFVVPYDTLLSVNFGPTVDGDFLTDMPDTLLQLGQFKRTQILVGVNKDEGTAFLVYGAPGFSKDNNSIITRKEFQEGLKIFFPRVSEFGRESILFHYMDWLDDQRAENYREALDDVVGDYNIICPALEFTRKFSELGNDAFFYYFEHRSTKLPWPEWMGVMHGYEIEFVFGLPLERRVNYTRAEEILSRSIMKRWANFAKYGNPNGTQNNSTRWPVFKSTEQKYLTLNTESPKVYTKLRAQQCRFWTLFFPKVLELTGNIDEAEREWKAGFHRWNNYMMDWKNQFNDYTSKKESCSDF

[3] = target: Cholinesterase (Equus caballus) (UniProt P81908); experiment: Inhibition of equine BChE at 3.0 uM using butyrylthiocholine iodide as substrate measured from 0.5 to 1.5 mins by spectrophotometry based Ellman's method relative to control
[4] = target: Acetylcholinesterase (Electrophorus electricus) (UniProt O42275); experiment: Time-dependent inhibition of electric eel AChE at 300 nM using acetylthiocholine iodide as substrate
Acetylcholinesterase [5] = target: T1, Acetylcholinesterase (Homo sapiens, UniProt P22303); experiment: Inhibition of human serum AChE using acetylthiocholine iodide as substrate preincubated for 20 mins followed by substrate addition measured for 3 mins by Ellman's method
T1 sequence (P22303 whole entry): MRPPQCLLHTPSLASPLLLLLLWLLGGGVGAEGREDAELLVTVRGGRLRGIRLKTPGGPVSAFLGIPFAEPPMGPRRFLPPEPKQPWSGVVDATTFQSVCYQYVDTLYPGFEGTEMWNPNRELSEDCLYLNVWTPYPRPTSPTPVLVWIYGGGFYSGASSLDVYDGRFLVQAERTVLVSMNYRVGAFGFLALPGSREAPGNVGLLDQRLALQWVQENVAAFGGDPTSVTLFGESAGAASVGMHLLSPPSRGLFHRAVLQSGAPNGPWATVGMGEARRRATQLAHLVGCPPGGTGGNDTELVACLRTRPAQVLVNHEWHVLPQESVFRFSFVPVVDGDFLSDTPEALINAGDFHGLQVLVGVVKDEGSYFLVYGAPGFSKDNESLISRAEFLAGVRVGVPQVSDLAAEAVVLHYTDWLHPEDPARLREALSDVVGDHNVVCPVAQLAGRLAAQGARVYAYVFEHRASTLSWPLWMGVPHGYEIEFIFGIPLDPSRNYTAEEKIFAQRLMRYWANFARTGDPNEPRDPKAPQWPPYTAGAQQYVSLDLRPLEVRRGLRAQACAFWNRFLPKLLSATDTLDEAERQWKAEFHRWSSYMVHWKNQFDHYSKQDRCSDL

[6] = target: Acetylcholinesterase (Electrophorus electricus) (UniProt O42275); experiment: Inhibition of electric eel AChE at 3.0 uM using acetylthiocholine iodide as substrate measured from 0.5 to 1.5 mins by spectrophotometry-based Ellman's method relative to control
[7] = target: Acetylcholinesterase (Electrophorus electricus) (UniProt O42275); experiment: Inhibition of electric eel AChE at 0.3 uM using acetylthiocholine iodide as substrate measured from 0.5 to 1.5 mins by spectrophotometry-based Ellman's method relative to control
Acetylcholinesterase [8] = target: Acetylcholinesterase (Electrophorus electricus, UniProt O42275); experiment: Mixed inhibition of electric eel AChE using acetylthiocholine iodide as substrate measured from 0.5 to 1.5 mins by Dixon plot analysis
Sequence of Acetylcholinesterase (Electrophorus electricus, UniProt O42275) (O42275 whole entry): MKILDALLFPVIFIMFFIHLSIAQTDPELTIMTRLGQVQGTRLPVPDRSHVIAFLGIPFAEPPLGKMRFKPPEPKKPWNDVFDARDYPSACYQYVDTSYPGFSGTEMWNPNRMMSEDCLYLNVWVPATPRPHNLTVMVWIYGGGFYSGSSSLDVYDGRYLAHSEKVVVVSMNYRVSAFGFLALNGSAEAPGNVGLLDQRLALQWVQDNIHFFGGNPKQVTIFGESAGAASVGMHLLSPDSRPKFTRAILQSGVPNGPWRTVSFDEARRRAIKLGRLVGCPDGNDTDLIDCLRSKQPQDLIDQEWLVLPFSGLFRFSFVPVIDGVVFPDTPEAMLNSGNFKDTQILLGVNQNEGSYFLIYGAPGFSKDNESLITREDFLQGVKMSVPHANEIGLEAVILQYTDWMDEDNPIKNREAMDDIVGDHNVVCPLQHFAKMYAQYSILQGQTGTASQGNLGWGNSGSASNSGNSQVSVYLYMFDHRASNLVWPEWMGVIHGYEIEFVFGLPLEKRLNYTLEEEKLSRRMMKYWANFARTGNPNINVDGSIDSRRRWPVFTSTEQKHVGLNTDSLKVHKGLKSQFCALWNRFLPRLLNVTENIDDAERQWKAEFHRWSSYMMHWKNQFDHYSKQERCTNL

Cholinesterase [9] = target: T2, Cholinesterase (Homo sapiens, UniProt P06276); experiment: Inhibition of human serum BChE using butyrylthiocholine iodide as substrate preincubated for 20 mins followed by substrate addition measured for 3 mins by Ellman's method
T2 sequence (P06276 whole entry): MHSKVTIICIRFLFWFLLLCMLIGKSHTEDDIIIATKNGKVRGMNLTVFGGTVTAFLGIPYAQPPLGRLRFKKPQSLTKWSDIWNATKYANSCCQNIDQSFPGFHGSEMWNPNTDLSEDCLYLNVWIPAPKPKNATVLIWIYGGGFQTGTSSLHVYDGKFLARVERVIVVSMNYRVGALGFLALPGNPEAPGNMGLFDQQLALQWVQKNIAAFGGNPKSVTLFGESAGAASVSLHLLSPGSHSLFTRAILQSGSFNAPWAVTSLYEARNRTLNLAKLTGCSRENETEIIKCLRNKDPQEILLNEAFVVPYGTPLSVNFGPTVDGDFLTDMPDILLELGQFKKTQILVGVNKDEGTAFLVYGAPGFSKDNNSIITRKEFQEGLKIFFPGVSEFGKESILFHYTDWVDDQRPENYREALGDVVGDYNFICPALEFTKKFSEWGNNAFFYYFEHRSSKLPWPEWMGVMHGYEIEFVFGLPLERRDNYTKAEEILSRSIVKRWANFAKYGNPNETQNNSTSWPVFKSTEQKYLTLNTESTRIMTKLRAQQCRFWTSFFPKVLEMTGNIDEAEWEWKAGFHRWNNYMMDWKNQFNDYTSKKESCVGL

[10] = Cytotoxicity against human T67 cells after 24 hrs by MTT assay; assay type: cell-based; details: T67, 24 h
[11] = target: Cholinesterase (Equus caballus) (UniProt P81908); experiment: Inhibition of equine BChE at 30 uM using butyrylthiocholine iodide as substrate measured from 0.5 to 1.5 mins by spectrophotometry based Ellman's method relative to control
HeLa [12] = experiment: Cytotoxicity against human HeLa cells after 24 hrs by MTT assay; assay type: cell-based
HeLa [13] = experiment: Cytotoxicity against human HeLa cells assessed as effect on cell viability up to 10 uM after 24 hrs by MTT assay; assay type: cell-based
[14] = Cytotoxicity against human T67 cells assessed as effect on cell viability up to 10 uM after 24 hrs by MTT assay; assay type: cell-based
HeLa [15] = experiment: Cytotoxicity against human HeLa cells assessed as cell mortality at 10 uM after 24 hrs by MTT assay; assay type: cell-based
[16] = Cytotoxicity against human T67 cells assessed as cell mortality at 10 uM after 24 hrs by MTT assay; assay type: cell-based
Cholinesterase [17] = target: T2, Cholinesterase; experiment: Inhibition of human serum BChE at 25 uM using butyrylthiocholine iodide as substrate preincubated for 20 mins followed by substrate addition measured for 3 mins by Ellman's method
Acetylcholinesterase [18] = target: T1, Acetylcholinesterase; experiment: Inhibition of human serum AChE at 25 uM using acetylthiocholine iodide as substrate preincubated for 20 mins followed by substrate addition measured for 3 mins by Ellman's method

Sequence of Acetylcholinesterase (Electrophorus electricus) (O42275 24-633 limits assumed): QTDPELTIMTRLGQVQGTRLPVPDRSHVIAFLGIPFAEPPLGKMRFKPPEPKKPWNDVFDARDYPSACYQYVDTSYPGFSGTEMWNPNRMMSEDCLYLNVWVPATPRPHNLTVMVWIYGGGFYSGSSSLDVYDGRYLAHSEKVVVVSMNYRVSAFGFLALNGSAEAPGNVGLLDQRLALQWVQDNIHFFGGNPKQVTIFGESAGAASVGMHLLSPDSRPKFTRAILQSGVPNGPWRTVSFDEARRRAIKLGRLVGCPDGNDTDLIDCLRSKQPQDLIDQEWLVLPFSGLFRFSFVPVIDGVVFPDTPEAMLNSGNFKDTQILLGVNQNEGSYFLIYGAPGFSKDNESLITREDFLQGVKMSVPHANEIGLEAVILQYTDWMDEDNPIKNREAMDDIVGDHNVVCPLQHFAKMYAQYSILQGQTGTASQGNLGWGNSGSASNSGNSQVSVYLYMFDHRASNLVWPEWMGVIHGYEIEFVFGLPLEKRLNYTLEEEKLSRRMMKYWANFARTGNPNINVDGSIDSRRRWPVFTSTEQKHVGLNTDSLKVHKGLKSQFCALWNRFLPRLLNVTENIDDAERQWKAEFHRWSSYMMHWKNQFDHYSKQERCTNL

Compound	inhibition [1] [%]	inhibition [2] [%]	inhibition [3] [%]	TDI [4]	IC50 (Acetylcholinesterase [5]) [µM]	inhibition [6] [%]	inhibition [7]	Ki (Acetylcholinesterase [8]) [µM]	IC50 (Cholinesterase [9]) [µM]	IC50 [10] [µM]	inhibition [11] [%]	IC50 (HeLa [12]) [µM]	Activity (HeLa [13])	Activity [14]	Activity (HeLa [15]) [%]	Activity [16] [%]	inhibition (Cholinesterase [17]) [%]	inhibition (Acetylcholinesterase [18]) [%]
O=C(Nc1ccncc1Br)OCCCCCNCc1ccccc1	20	< 5	57	inactive	4.04	90	55%	0.404	5.27									
COc1ccccc1CNCCCCCOC(=O)Nc1cc(Cl)nc(Cl)c1	10	< 5	49	inactive	6.16	89	50%	0.288	4.02									
COc1ccccc1CNCCCCCCNC(=O)c1cc(Cl)nc(Cl)c1	14	6	54		8.3	90	49%	0.355	45.5									
O=C(Nc1cc(Cl)nc(Cl)c1)OCCCCCNCc1ccccc1	65	17		inactive	0.153	99	91%	0.0386	4.59	24.1	95	20.8	Non-Toxic	Non-Toxic				
O=C(NCCCCCCNCc1c[nH]c2ccccc12)c1cc(Cl)nc(Cl)c1	15	13	64		8.85	92	55%	0.205	4.7									
O=C(Nc1cc(Cl)nc(Cl)c1)OCCCCCNCc1c[nH]c2ccccc12	24	8	57	inactive	0.648	97	76%	0.157	0.828	5.8		6.7			50	50		
O=C(NCCCCCCNCc1ccc2ccccc2c1)c1cc(Cl)nc(Cl)c1			46		99.7	15	inactive		9.96									
O=C(NCCCCCCNCc1ccc(Oc2ccccc2)cc1)c1cc(Cl)nc(Cl)c1			18			16	inactive										< 20	< 20
O=C(NCCCCCCNCc1ccccc1)c1cc(Cl)nc(Cl)c1	18	17	73		3.17	95	71%	0.0528	25.8									
O=C(Nc1cc(Cl)nc(Cl)c1)OCCCCCNCc1ccc(Oc2ccccc2)cc1			60	inactive		24	< 5%		8.41									< 20
O=C(Nc1cc(Cl)nc(Cl)c1)OCCCCCCNCc1ccccc1	33	12		inactive	0.759	91	72%	0.259	4.01	13.2	89	12.5			25	25		
